Assay results reported in US20120022058A1, “4,5-DIHYDRO-1H-PYRAZOLE COMPOUNDS AND THEIR PHARMACEUTICAL USES” (Pfizer Inc., priority 2009, published 2012).

Each compound was assayed against T1, MR (Homo sapiens, UniProt P08235) (assay: Cell-Based Reporter Assay (Gal4 DBD-MR LBD luciferase reporter, antagonist mode)). Conditions: antagonist mode vs aldosterone at EC80; transfected human liver cells (Huh7); luciferase readout; Examples 3, 6, 12 and 13 tested in analogous format with minor variations.
T1 construct: expressed in transfected cells; host or cells: Huh7 human liver cells, transient transfection
T1 sequence (P08235 726-964 limits assumed): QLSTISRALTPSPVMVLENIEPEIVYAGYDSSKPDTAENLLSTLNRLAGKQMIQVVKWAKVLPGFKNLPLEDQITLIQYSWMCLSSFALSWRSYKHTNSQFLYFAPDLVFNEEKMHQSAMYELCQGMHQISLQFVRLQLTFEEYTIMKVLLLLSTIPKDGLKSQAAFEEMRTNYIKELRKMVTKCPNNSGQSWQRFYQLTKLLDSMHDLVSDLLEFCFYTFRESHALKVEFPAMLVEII
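Note: cells co-transfected with a Gal4 response element luciferase plasmid, compound exposure overnight before lysis and luminescence counting, IC50 reflects reduced aldosterone-stimulated reporter signal.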

Structure (SMILES) | IC50 [nM]
Cc1cc(C2=NN(c3ccc(C#N)c(C)n3)[C@@H](C3CCCC3)C2)cc(C)c1O [Example 57, (R)-6-(5-cyclopentyl-3-(4-hydroxy-3,5-dimethylphenyl)-4,5-dihydro-1H-pyrazol-1-yl)-2-methylnicotinonitrile] | 503
Cc1nc(N2N=C(c3ccc(C(N)=O)cc3)C[C@@H]2C2CCCC2)ccc1C#N [Example 16, (R)-4-(1-(5-cyano-6-methylpyridin-2-yl)-5-cyclopentyl-4,5-dihydro-1H-pyrazol-3-yl)benzamide] | 13.4
Cc1nc(N2N=C(c3ccc4c(c3)C(=O)NC4)C[C@@H]2C2CCCC2)ccc1C#N [Example 31, (R)-6-(5-cyclopentyl-3-(3-oxoisoindolin-5-yl)-4,5-dihydro-1H-pyrazol-1-yl)-2-methylnicotinonitrile] | 11.2
COc1cccc(C2=NN(c3ccc(C#N)c(C)n3)[C@@H](C3CCCC3)C2)n1 [Example 28, (R)-6-(5-cyclopentyl-3-(6-methoxypyridin-2-yl)-4,5-dihydro-1H-pyrazol-1-yl)-2-methylnicotinonitrile] | 97.6
CC(=O)Nc1cccc(C2=NN(c3ccc(C#N)c(C)n3)[C@@H](C3CCCC3)C2)n1 [Example 66, (R)—N-(6-(1-(5-cyano-6-methylpyridin-2-yl)-5-cyclopentyl-4,5-dihydro-1H-pyrazol-3-yl)pyridin-2-yl)acetamide] | 255
COc1cc(N2N=C(c3ccc(C(=O)O)c(OC)n3)CC2C2CCCC2)ccc1C#N (centres unmarked) [Example 6, 6-[1-(4-cyano-3-methoxy-phenyl)-5-cyclopentyl-4,5-dihydro-1H-pyrazol-3-yl]-2-methoxy-nicotinic acid] | 9
COc1cc(C2=NN(c3ccc(C#N)c(C)n3)[C@@H](C3CCCC3)C2)ccc1CC(=O)O [Example 54, (R)-2-(4-(1-(5-cyano-6-methylpyridin-2-yl)-5-cyclopentyl-4,5-dihydro-1H-pyrazol-3-yl)-2-methoxyphenyl)acetic acid] | 95.7
Cc1nc(N2N=C(c3ccc(NS(C)(=O)=O)cc3)C[C@@H]2C2CCCC2)ccc1C#N [Example 25, (R)—N-(4-(1-(5-cyano-6-methylpyridin-2-yl)-5-cyclopentyl-4,5-dihydro-1H-pyrazol-3-yl)phenyl)methanesulfonamide] | 48.4
